In test [1] the test system is MDA-MB-231. Description: Induction of apoptosis in human MDA-MB-231 cells assessed as proportion of viable cells at 1 ug measured after 24 hrs by Annexin V-FITC/propidium iodide staining based flow cytometry (reference value: 99%). The format is functional. The settings on record: dose 1 µg.
Test [2] has as its system MDA-MB-231. As to the kind of experiment: Induction of apoptosis in human MDA-MB-231 cells assessed as proportion of early apoptotic cells at 1 ug measured after 24 hrs by Annexin V-FITC/propidium iodide staining based flow cytometry (reference value: 0.2%). Conditions: dose 1 µg. It counts as functional.
The test system of test [3] is MDA-MB-231. As to the kind of experiment: Induction of apoptosis in human MDA-MB-231 cells assessed as proportion of necrotic cells at 1 ug measured after 24 hrs by Annexin V-FITC/propidium iodide staining based flow cytometry (reference value: 0.2%). It counts as functional. The settings on record: dose 1 µg. A general note: In flow cytometry, cells or beads pass a laser one at a time.

The test system of test [4] is MDA-MB-231. As to the kind of experiment: Induction of apoptosis in human MDA-MB-231 cells assessed as proportion of late apoptotic cells at 1 ug measured after 24 hrs by Annexin V-FITC/propidium iodide staining based flow cytometry (reference value: 0.5%). The format is functional. The settings on record: dose 1 µg.
Test [5] deals with MDA-MB-231. As to the kind of experiment: Antiproliferative activity against human MDA-MB-231 cells assessed as inhibition of cell growth measured after 48 hrs by SRB assay. Conditions: MDA-MB-231, 48 h. It counts as functional, cell-based.
The next test deals with A549. As to the kind of experiment: Antiproliferative activity against human A549 cells assessed as inhibition of cell growth measured after 48 hrs by SRB assay. The format is functional, cell-based. The settings on record: A549, 48 h. On the technique in general: The SRB assay estimates cell density from bound dye.

As a reminder, the IC50 is the concentration that inhibits the measured activity by half.

Take `COc1cccc2c1C(=O)c1c(O)c3c(c(O)c1C2=O)C[C@@](O)(C(=O)CO)C[C@@H]3O[C@H]1C[C@H](N)[C@H](O)[C@H](C)O1` [DOXORUBICIN]: the Activity in the test with MDA-MB-231 [1] stood at 13.7%; in the test with MDA-MB-231 [2] it was 0.1%; in the test with MDA-MB-231 [3], 80.1%; in the test on MDA-MB-231 [4], 6.2%. The IC50 was 5120 nM in the test with MDA-MB-231 [5] and 630 nM with A549.

The values are drawn from ChEMBL document CHEMBL4680139, “Antiproliferative activity of diarylnaphthylpyrrolidine derivative via dual target inhibition” (Eur J Med Chem, 2020).
